Laboratory results: patent US8697369B2, “Method for screening a test substance for activating a receptor associated with FGF 21 activity” (National Institute of Advanced Industrial Science and …, priority 2007, dated 2014)
“Also recorded” adds a separate entry of the source.

Experiments:
[1] = biological target: T1, FGFR1c/betaKlotho-expressing BaF3 cells (Mus musculus, UniProt P16092+Q99N32); experiment: DNA synthesis (thymidine incorporation) in FGFR1c/betaKlotho-expressing BaF3 cells; assay type: cell-based
T1 construct: the entire-length cDNA of mouse FGFR1c had been cloned; the entire-length cDNA of mouse betaKlotho was cloned into an animal cell expression vector; expressed in transfected cells; host or cells: BaF3 (mouse pro-B) cells
Procedure: (§1) A commonly used measurement method is a cell growth stimulating activity measurement method described in Ornitz, D. M., Xu, J., Colvin, J. S., McEwen, D. G., MacArthur, C. A., Coulier, F., Gao, G. and Goldfarb, M. (1996) Receptor specificity of the fibroblast growth factor family. J Biol Chem, 271, 15292-15297. The summary thereof is as follows. FGF used as a measurement target is added to a culture solution containing a cultured cell having an FGF receptor on the surface thereof, and the obtained mixture is cultured for a certain period of time. Thereafter, a labeled thymidine is added to the culture solution, followed by further culture for a certain period of time. By measuring the amount of the labeled thymidine incorporated into polymeric DNA during the culture, the degree of FGF to activate DNA synthesis is evaluated. (In the present invention as well, this method was adopted when the activity of FGF21 was measured in Examples 4, 5, 6, 8, 9, and 10.)
FGFR1c-expressing BaF3 cells and FGFR1c- and betaKlotho-expressing BaF3 cells were prepared as follows. In the case of FGFR1c-expressing BaF3 cells, an animal cell expression vector into which the entire-length cDNA of mouse FGFR1c had been cloned (described in Ornitz, D. M., Xu, J., Colvin, J. S., McEwen, D. G., MacArthur, C. A., Coulier, F., Gao, G. and Goldfarb, M. (1996) Receptor specificity of the fibroblast growth factor family. J Biol Chem, 271, 15292-15297.) was introduced into BaF3 cells by an electroporation method. The cells were then cultured in the presence of G418 for approximately 2 weeks, so as to obtain drug-resistant clones. Thereafter, such clones were obtained as those capable of growing as a result of FGF1 stimulation. In the case of both FGFR1c- and betaKlotho-expressing BaF3 cells, the entire-length cDNA of mouse betaKlotho was cloned into an animal cell expression vector, and it was then introduced into the FGFR1c-expressing BaF3 cells. The cells were then cultured in the presence of Puromycin and G418 for approximately 2 weeks, so as to obtain drug-resistant clones. In the case of only betaKlotho-expressing BaF3 cells, a betaKlotho-expressing vector was introduced into BaF3 cells, and Puromycin-resistant clones were then obtained. The BaF3 cells, into which the aforementioned genes had been each introduced, were maintained in an RPMI1640 medium containing 10% FBS and interleukin 3 (IL3, supplied by adding a 5% condition medium of WEHI-3 cells). For the growth stimulation experiment, the cells were washed with an RPMI1640 medium, and they were then suspended in an RPMI1640 medium containing 10% FBS, followed by inoculating the suspension on a culture plate. Thereafter, the resultant cells were used.
Immediately after inoculation, BaF3 cells that had expressed each clone and only FGFR1c were stimulated by addition of FGF21 (open bar) or PBS (filled bar) used as a control in the presence of heparin, and they were then cultured for 42 hours. Thereafter, tritium-labeled thymidine was added to the culture solution, and the culture was further continued for 6 hours. Thereafter, the amount of thymidine incorporated into the cells was measured, so as to evaluate DNA synthesis. A DNA synthesis value obtained when the cells were not stimulated with FGF21 was defined as 1, and the ratio of a DNA synthesis value obtained by stimulating with FGF21 to the aforementioned DNA synthesis value was expressed using magnification. […]

[2] = test system: FGFR3c/betaKlotho-expressing BaF3 cells; experiment: DNA synthesis (thymidine incorporation) in FGFR3c/betaKlotho-expressing BaF3 cells; assay type: cell-based, mouse
Procedure: as §1
(§2) Whether other receptor molecules can also act as such FGF receptors was examined. An expression vector containing each FGFR (FGFR1b, R1c, R2b, R2c, R3b, R3c, and R4) (described in Ornitz, D. M., Xu, J., Colvin, J. S., McEwen, D. G., MacArthur, C. A., Coulier, F., Gao, G. and Goldfarb, M. (1996) Receptor specificity of the fibroblast growth factor family. J Biol Chem, 271, 15292-15297.) was introduced into betaKlotho-expressing BaF3 cells, so as to obtain clones that were resistant to Puromycin and G418, thereby obtaining FGFR/betaKlotho-expressing cells. Such cells were stimulated with FGF21, and the amount of DNA synthesized was measured.
The activity of FGF21 to stimulate the DNA synthesis of BaF3 cells that had expressed each FGFR (FGFR1c, R2c, F3c, and R4) as well as betaKlotho was compared with the activity of FGF19, which was evolutionally relative to FGF21. By procedures opposite to those of Example 5, namely, an expression vector containing betaKlotho was introduced into BaF3 cells that had expressed each type of FGFR, so as to obtain Puromycin- and G418-resistant clones, thereby obtaining FGFR/betaKlotho-expressing cells. The cells were stimulated with FGF21, FGF19, and FGF1 in the presence of heparin, while changing the amounts of FGF21, FGF19, and FGF1, as shown in the figure, and the amount of DNA synthesized was then measured.

[3] = biological target: T2, betaKlotho-expressing BaF3 cells (Mus musculus, UniProt Q99N32); experiment: DNA synthesis (thymidine incorporation) in BaF3 cells expressing only betaKlotho; assay type: cell-based; conditions: presence or absence of heparin
T2 construct: the entire-length cDNA of mouse betaKlotho was cloned into an animal cell expression vector; expressed in transfected cells; host or cells: BaF3 (mouse pro-B) cells
T2 sequence (Q99N32 1-1043): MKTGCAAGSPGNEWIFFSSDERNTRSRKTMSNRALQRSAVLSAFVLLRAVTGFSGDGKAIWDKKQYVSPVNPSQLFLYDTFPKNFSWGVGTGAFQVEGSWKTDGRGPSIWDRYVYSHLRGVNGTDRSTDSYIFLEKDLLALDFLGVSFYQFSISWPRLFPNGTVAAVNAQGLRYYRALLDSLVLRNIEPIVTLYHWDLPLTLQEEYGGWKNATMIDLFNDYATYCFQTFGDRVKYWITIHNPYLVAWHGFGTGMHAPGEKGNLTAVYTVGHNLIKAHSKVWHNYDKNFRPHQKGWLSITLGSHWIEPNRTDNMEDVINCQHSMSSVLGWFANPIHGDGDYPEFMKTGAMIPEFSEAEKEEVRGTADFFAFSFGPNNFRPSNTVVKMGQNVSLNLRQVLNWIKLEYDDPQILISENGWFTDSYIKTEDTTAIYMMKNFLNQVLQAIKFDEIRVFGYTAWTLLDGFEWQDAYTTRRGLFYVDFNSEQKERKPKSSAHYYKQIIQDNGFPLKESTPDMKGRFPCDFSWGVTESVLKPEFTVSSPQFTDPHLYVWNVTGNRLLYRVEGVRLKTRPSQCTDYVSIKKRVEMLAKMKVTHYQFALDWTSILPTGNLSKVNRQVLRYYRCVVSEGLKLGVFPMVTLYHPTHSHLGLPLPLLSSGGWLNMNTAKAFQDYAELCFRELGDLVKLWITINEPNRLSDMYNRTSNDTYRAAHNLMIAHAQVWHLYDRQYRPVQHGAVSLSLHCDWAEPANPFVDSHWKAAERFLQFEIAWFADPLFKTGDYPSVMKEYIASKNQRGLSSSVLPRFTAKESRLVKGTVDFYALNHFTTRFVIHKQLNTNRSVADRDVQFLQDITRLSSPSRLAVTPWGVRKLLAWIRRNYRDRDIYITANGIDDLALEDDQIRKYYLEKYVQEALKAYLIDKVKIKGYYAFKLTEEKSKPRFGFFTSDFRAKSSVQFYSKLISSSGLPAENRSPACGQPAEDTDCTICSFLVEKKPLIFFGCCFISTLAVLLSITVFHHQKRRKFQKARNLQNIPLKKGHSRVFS
Procedure: as §1, with “10.) […]” for “10.)”
Immediately after inoculation, BaF3 cells that had expressed each clone and only FGFR1c were stimulated by addition of FGF21 (open bar) or PBS (filled bar) used as a control in the presence of heparin, and they were then cultured for 42 hours. […] Thereafter, the amount of thymidine incorporated into the cells was measured, so as to evaluate DNA synthesis. […]

[4] = biological target: T3, FGFR2c/betaKlotho-expressing BaF3 cells (Mus musculus, UniProt P21803+Q99N32); experiment: DNA synthesis (thymidine incorporation) in FGFR2c/betaKlotho-expressing BaF3 cells; assay type: cell-based; conditions: BaF3 cells expressing FGFR2c and betaKlotho; presence of heparin
T3 construct: the entire-length cDNA of mouse betaKlotho was cloned into an animal cell expression vector; expressed in transfected cells; host or cells: BaF3 (mouse pro-B) cells
Procedure: as §1, §2
(§3) The activity of FGF21 to stimulate the DNA synthesis of BaF3 cells that had expressed each FGFR (FGFR1c, R2c, F3c, and R4) as well as betaKlotho was compared with the activity of FGF19, which was evolutionally relative to FGF21. […] The cells were stimulated with FGF21, FGF19, and FGF1 in the presence of heparin, while changing the amounts of FGF21, FGF19, and FGF1, as shown in the figure, and the amount of DNA synthesized was then measured.

[5] = test system: FGFR4/betaKlotho-expressing BaF3 cells; experiment: DNA synthesis (thymidine incorporation) in FGFR4/betaKlotho-expressing BaF3 cells; assay type: cell-based, mouse; conditions: BaF3 cells expressing FGFR4 and betaKlotho; presence of heparin
Procedure: as §1, §2, §3

[6] = biological target: T4, R1c/betaKlotho-expressing cells (Mus musculus, UniProt P16092+Q99N32); experiment: Phosphorylation of FRS2 and MAPK (Western blotting) in R1c/betaKlotho-expressing cells; assay type: cell-based; conditions: presence of heparin; 10 minutes stimulation
T4 construct: the entire-length cDNA of mouse FGFR1c had been cloned; the entire-length cDNA of mouse betaKlotho was cloned into an animal cell expression vector; expressed in transfected cells; host or cells: BaF3 (mouse pro-B) cells
Procedure: (§4) Each FGFR/betaKlotho-expressing cells obtained in Example 6 were stimulated with FGF, and the activated state (phosphorylated state) of a signaling molecule FRS2 (fibroblast growth factor receptor substrate 2) located downstream of FGFR, and that of MAPK (mitogen activated protein kinase; alias: ERK (extracellular signal-regulated kinase; in general, there are two types of ERKs, namely, ERK1 with a molecular weight of 44 kDa and ERK2 with a molecular weight of 42 kDa)), were analyzed. Different types of cells were stimulated with each FGF in the presence of heparin for 10 minutes, and a cell lysate was then prepared. Thereafter, the phosphorylated degree was evaluated by measuring it by a Western blotting method using a commercially available anti-phosphorylation FRS2 antibody or an anti-phosphorylation MAPK antibody.

[7] = biological target: T5, FGFR2c/betaKlotho-expressing cells (Mus musculus, UniProt P21803+Q99N32); experiment: Phosphorylation of FRS2 and MAPK (Western blotting) in FGFR2c/betaKlotho-expressing cells; assay type: cell-based; conditions: presence of heparin; 10 minutes stimulation
T5 construct: the entire-length cDNA of mouse betaKlotho was cloned into an animal cell expression vector; expressed in transfected cells; host or cells: BaF3 (mouse pro-B) cells
Procedure: as §4

[8] = test system: R3c/betaKlotho-expressing cells; experiment: Phosphorylation of FRS2 and MAPK (Western blotting) in R3c/betaKlotho-expressing cells; assay type: cell-based, mouse; conditions: presence of heparin; 10 minutes stimulation
Procedure: as §4

[9] = test system: FGFR4/betaKlotho-expressing cells; experiment: Phosphorylation of FRS2 and MAPK (Western blotting) in FGFR4/betaKlotho-expressing cells; assay type: cell-based, mouse; conditions: presence of heparin; 10 minutes stimulation
Procedure: as §4

T1 sequence (P16092 22-822, one chain of several): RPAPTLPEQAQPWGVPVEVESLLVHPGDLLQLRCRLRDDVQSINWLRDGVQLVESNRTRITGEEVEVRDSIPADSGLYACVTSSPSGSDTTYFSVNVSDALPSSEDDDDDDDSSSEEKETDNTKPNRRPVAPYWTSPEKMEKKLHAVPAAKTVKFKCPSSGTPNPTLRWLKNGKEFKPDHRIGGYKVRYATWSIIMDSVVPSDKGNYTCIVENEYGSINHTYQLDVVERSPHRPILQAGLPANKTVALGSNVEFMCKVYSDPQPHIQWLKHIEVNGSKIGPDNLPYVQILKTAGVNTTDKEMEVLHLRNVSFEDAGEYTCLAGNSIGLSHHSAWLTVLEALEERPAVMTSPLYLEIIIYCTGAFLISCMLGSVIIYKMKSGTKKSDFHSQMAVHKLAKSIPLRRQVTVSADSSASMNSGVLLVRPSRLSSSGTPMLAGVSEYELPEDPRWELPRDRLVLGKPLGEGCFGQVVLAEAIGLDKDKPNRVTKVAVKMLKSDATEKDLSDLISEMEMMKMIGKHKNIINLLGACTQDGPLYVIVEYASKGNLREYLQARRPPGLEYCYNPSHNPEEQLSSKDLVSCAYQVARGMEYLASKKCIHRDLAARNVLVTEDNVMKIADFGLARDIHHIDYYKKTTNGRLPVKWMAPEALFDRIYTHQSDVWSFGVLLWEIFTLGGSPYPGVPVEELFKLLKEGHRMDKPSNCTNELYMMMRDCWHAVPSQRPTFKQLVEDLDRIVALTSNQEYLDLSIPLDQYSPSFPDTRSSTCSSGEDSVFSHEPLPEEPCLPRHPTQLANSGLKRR
Chain of FGFR3c/betaKlotho-expressing BaF3 cells (Q61851 21-369 limits assumed, one chain of several): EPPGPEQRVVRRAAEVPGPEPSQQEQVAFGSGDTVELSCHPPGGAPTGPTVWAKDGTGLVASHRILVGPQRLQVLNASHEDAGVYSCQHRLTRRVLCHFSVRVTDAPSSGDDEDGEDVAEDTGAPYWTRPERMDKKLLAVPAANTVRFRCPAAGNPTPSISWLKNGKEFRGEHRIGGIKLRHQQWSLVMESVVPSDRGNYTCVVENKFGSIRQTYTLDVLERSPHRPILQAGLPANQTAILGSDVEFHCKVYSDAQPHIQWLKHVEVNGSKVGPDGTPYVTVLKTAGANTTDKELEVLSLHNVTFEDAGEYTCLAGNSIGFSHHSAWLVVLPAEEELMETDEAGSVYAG
T5 sequence (P21803 22-821, one chain of several): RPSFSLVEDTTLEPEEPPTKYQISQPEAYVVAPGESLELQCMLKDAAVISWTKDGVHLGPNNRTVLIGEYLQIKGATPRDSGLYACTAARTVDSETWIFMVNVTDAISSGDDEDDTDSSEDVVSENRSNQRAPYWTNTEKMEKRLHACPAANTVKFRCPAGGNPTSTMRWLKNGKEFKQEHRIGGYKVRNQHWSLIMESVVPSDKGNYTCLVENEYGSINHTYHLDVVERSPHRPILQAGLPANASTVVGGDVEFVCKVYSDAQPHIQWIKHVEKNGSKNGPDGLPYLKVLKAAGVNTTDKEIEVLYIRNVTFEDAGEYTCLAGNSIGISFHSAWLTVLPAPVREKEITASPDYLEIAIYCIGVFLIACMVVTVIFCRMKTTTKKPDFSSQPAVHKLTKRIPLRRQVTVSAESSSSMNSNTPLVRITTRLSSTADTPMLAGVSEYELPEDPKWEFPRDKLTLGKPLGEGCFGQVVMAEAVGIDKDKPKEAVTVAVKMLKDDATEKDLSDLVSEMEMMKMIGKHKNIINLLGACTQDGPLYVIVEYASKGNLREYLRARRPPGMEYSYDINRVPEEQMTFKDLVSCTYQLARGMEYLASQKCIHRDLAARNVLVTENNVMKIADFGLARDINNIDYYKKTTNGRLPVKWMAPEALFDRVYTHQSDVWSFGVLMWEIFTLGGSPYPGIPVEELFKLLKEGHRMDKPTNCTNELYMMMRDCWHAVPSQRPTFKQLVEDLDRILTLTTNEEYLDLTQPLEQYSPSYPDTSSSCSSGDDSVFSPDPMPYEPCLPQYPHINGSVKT
T3 sequence (P21803 22-821, one chain of several): as above
Chain of FGFR4/betaKlotho-expressing BaF3 cells (Q03142 17-366 limits assumed, one chain of several): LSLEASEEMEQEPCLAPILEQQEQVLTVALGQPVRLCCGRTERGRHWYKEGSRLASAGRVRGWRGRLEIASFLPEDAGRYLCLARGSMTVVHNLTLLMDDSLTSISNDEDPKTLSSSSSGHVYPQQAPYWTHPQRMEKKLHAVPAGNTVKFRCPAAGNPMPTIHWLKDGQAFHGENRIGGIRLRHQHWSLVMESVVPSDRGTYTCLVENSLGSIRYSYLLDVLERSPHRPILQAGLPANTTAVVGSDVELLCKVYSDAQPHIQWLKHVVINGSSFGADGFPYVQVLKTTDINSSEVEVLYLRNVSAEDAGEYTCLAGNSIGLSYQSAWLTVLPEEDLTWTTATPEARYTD
T4 sequence (P16092 22-822, one chain of several): as the sequence (P16092 22-822, one chain of several) above
Chain of FGFR4/betaKlotho-expressing cells (Q03142 143-366 limits assumed, one chain of several): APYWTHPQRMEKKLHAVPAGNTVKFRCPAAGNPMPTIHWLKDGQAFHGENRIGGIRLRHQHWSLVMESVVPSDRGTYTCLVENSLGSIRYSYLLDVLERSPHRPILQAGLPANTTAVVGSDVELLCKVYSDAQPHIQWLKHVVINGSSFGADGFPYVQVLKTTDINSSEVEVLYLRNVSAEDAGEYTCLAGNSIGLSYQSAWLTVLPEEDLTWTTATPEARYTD
Chain of R3c/betaKlotho-expressing cells (Q61851 21-369 limits assumed, one chain of several): as the sequence (Q61851 21-369 limits assumed, one chain of several) above

heparin [reference compound]
effect of heparin on the action of FGF21 (DNA synthesis) ([1]; FGFR1c/betaKlotho-expressing BaF3 cells stimulated with FGF21): increases the action of FGF21; also recorded: reactivity was increased
effect of heparin on reactivity with FGF21 (DNA synthesis) ([2]; FGFR3c/betaKlotho-expressing BaF3 cells stimulated with FGF21): reactivity was increased

interleukin 3 [reference compound]
DNA synthesis (thymidine incorporated into the cells) [3]: significantly grew

FGF19: FGF family member evolutionally relative to FGF21, used for comparison
DNA synthesis (thymidine incorporated into the cells) ([1]; BaF3 cells expressing FGFR1c and betaKlotho, presence or absence of heparin): strong activity
DNA synthesis (thymidine incorporated into the cells) ([2]; BaF3 cells expressing FGFR3c and betaKlotho): strong activity
DNA synthesis (thymidine incorporated into the cells) [4]: strong activity
DNA synthesis (thymidine incorporated into the cells) [5]: strong activity
phosphorylation of FRS2 and MAPK [6]: significantly increase the phosphorylation
phosphorylation of FRS2 and MAPK [7]: significantly increase the phosphorylation
phosphorylation of FRS2 and MAPK [8]: significantly increase the phosphorylation
phosphorylation of FRS2 and MAPK [9]: significantly increase the phosphorylation
